Measurements published in publication PMC10384666, “Impact of Peptide Structure on Colonic Stability and Tissue Permeability” (Pharmaceutics, 2023).
Bridge positions count the residues as written; N and C are the ends. Square brackets hold non-standard residues; d marks the D form. Ends that are not written are not given here. Peptide text beside a SMILES is read from it.

Legend:
[1] = Peptide stability in a human colon model (pooled human faecal slurry, anaerobic); format: in vitro ADME; conditions: for higher stability than linear P1: at 30 min, relative to P1 (totally degraded); for Degradation rate constant / half-life at 1 mg/mL: fitted to exponential (one-phase, first-order) decay model; for Degradation rate constant: plateau 0.0; for remaining at 1.5 h, 1 mg/mL: after 1.5 h incubation, n = 3, read-out: peptide remaining intact (of starting concentration); for time interval in which entirely depleted: footnote to Table S1
Method: The human colon model (HCM) was prepared to mimic in vivo colonic conditions and maintain microbial viability. Fresh human faecal material was provided voluntarily from 3 healthy individuals who had not taken antibiotics for at least 6 months. Approval for the collection and use of human faecal material was obtained from the National Research Ethics Service (NRES) of Royal Free Hospital Biobank (reference number NC2017.010). Faecal material from the 3 donors was pooled and then diluted within an anaerobic workstation (37 °C, 70% relative humidity) (Elektrotek, Yorkshire, United Kingdom), using an in-house basal growth media to prepare 12.5% or 25% faecal slurries. These slurry concentrations have been used to measure the colonic stability of several drugs and exceed the minimum concentrations required for biorelevant bacterial activity. The samples were homogenised before being sieved (SefarNitex™, pore size 350 µm) to remove fibrous material. Faecal slurry was frozen at −80 °C in aliquots and thawed immediately prior to use.
Peptide stability studies were conducted within the anaerobic workstation (Elektrotek, Yorkshire, United Kingdom). An amount of 2 mg/mL stock solutions of oxytocin and oxytocin variants were prepared and added to HCM at a 1:1 ratio, leading to 1 mg/mL incubation concentrations (n = 3 for each peptide). Incubation vials were placed on a 100 RPM shaker and 50 µL samples were withdrawn at specific time intervals (0, 0.5, 1 and 1.5 h) and immediately quenched with 50 µL methanol (1:1) to terminate protease activity. Samples were centrifuged at 16,900 RCF for 10 min at 4 °C, and the supernatant was collected for peptide quantification with a 1260 II Series™ HPLC system (Agilent Technologies, Cheadle, UK). A Luna C18 (5 µm, 100 Å, 150 × 4.6 mm) HPLC column was used with a 1.0 mL/min flow rate, an injection volume of 20 µL and mobile phases of 0.1% TFA in water and ACN, with varying gradients for optimised individual peptide quantification to prevent overlap with endogenous components of the HCM.
All results are presented as mean ± standard deviation and subjected to statistical analysis using GraphPad Prism 9 (GraphPad by Dotmatics). Two-way ANOVA with Dunnett’s multiple comparison test was performed to determine statistical significance between peptides and native oxytocin at multiple timepoints. Results were deemed significant where p < 0.05. The physicochemical properties of peptides were estimated using RDKit (version 2021.09.4) in Python (version 3.6.15) via Jupyter Notebook (version 6.3.0) using the peptides’ isomeric SMILES. The Tanimoto similarities of the peptide variants’ molecular structure to native oxytocin was calculated using chemical fingerprints (ECFP6, radius 3, 2048 bits) RDKit (version 2022.9.1) with Python (version 3.7.0) via Google Colaboratory. Chemical similarity maps were generated using RDKit based on bit-vector fingerprints (chirality = true, radius 3, 2048 bits) and Tanimoto similarity. The degradation profiles of peptides were fitted to an exponential decay model in GraphPad Prism 9. A nonlinear regression (one-phase decay, also known as first-order decay) curve was fitted to the peptide stability data with a plateau constraint of 0.0.

[2] = Peptide tissue permeability, Ussing chamber with rat colonic tissue; format: in vitro ADME; conditions: for original dose detected in the basolateral chamber / original dose detected within the colonic tissue: at 2 h; for Papp at 2 h, 1 mg/mL: pH 7.4, 2 h (120 min)
Method: Peptide permeability studies were conducted using the NaviCyte Vertical Ussing chamber model (Harvard Apparatus, Cambridge, UK). Amounts of 250–300 g adult male Wistar rats (n = 3) were selected and sacrificed, in accordance with the accepted ethical standards of the National Research Ethics Service (ethical approval number 21/WA/0388). The rat colonic tissues were excised, processed to remove luminal contents and gently washed with Krebs-Ringer Bicarbonate (KBR) buffer (pH 7.4). Each colonic tissue was mounted on an Ussing chamber with the mucosal side facing the apical chamber. The tissue was allowed to acclimatise in the KBR buffer for 20 min. Transepithelial electrical resistance (TEER) across the tissue was measured using an EVOM^TM voltameter (World Precision Instruments, Inc., Hertfordshire, UK) and Ag/AgCl electrodes (Harvard Apparatus, Cambridge, UK). TEER values were measured to ensure the tissue integrity was maintained (≥200 Ω cm^2). The native oxytocin and oxytocin variants at 1 mg/mL concentrations were added to the apical chamber to measure peptide permeation into the tissue and into the basal chamber. Each peptide was tested twice using tissue from the three rats to account for any inter-animal variability. The Ussing chambers were continuously pumped with a supply of carbogen (95% oxygen/5% carbon dioxide) and maintained at 37 °C. An amount of 100 µL samples were taken from the basal side at 1 and 2 h timepoints. At 2 h, the tissues were collected, quenched with 6.25 µL methanol/mg tissue, sectioned with scissors, sonicated for 5 min and centrifuged for 10 min (4 °C, 16,900 RCF), with the supernatant used for peptide quantification. The amount of peptide within the basal chamber and tissue samples was measured with the HPLC method described in Section 3.3 and presented as the percentage of the peptide dose originally applied to the apical chamber. The apparent permeability (Papp) of peptides was calculated using Equation (1):(1) […]
Equation (1): Apparent permeability (Papp) of peptides across the rat colonic tissue was calculated using the peptide flux (µg/s, dQ/dt), the surface area of the tissue (cm^2) and the initial peptide concentration in the apical chamber (C0).

[3] = human, human colon model (pooled human faecal slurry, anaerobic), HCM
[4] = human, human colon model (HCM), pooled human faecal slurry
[5] = male, Wistar, 1 mg/mL apical, read-out: apparent permeability (Papp)

| Degradation rate constant ([1]; HCM) | remaining at 1.5 h, 1 mg/mL [1, 3] | half-life at 1 mg/mL [1, 4] | Compound | further results |
| --- | --- | --- | --- | --- |
| 1.62 h⁻¹ | 6 ± 1.36% | – | CC[C@H](C)[C@@H]1NC(=O)[C@H](Cc2ccc(O)cc2)NC(=O)[C@@H](N)CSSC[C@@H](C(=O)N2CCC[C@H]2C(=O)N[C@@H](CC(C)C)C(=O)NCC(N)=O)NC(=O)[C@H](CC(N)=O)NC(=O)[C@H](CCC(N)=O)NC1=O [Oxytocin, oxytocin, reference compound] | higher stability than linear P1 ([1]; HCM): 47.3 ± 1.98%; half-life at 1 mg/mL ([1]; human, HCM): 25.7 min; original dose detected in the basolateral chamber [2]: not detected; original dose detected within the colonic tissue [2]: not detected |
| 3.17 h⁻¹ | – | 13.1 min | CC[C@H](C)[C@@H]1NC(=O)[C@H](Cc2ccc(O)cc2)NC(=O)[C@@H](NC(C)=O)CSSC[C@@H](C(=O)N2CCC[C@H]2C(=O)N[C@@H](CC(C)C)C(=O)NCC(N)=O)NC(=O)[C@H](CC(N)=O)NC(=O)[C@H](CCC(N)=O)NC1=O [Peptide P2] | metabolised at 1.5 h, 1 mg/mL ([1]; human, human colon model (pooled human faecal slurry, anaerobic), HCM, after 1.5 h, read-out: peptide degraded by the HCM): 97.2 ± 0.84% |
| 0.688 h⁻¹ | 34.4 ± 0.61% | 60.4 min | CC[C@H](C)[C@@H]1NC(=O)[C@H](Cc2ccc(O)cc2)NC(=O)[C@H](C)NC(=O)CSC[C@@H](C(=O)N2CCC[C@H]2C(=O)N[C@@H](CC(C)C)C(=O)NCC(N)=O)NC(=O)[C@H](CC(N)=O)NC(=O)[C@H](CCC(N)=O)NC1=O [Peptide P3] ({CH2CO}-AYIQNCPLG-NH2; thioether N-6) | – |
| 0.108 h⁻¹ | 85.1 ± 0.21% | 385 min | CC[C@@H](C)[C@H]1NC(=O)[C@@H](Cc2ccc(O)cc2)NC(=O)[C@@H](N)CSSC[C@@H](C(=O)N2CCC[C@H]2C(=O)N[C@H](CC(C)C)C(=O)NCC(N)=O)NC(=O)[C@H](CC(N)=O)NC(=O)[C@H](CCC(N)=O)NC1=O [Peptide P4] | higher stability than linear P1 ([1]; HCM): 90.3 ± 1.57%; original dose detected in the basolateral chamber [2]: 6.85 ± 2.05%; original dose detected within the colonic tissue [2]: 3.0 ± 0.85%; Papp at 1 h, 1 mg/mL ([2]; male, Wistar, pH 7.4, 1 h (60 min), 1 mg/mL apical, read-out: apparent permeability (Papp)): 57 ×10⁻⁶ cm/s; Papp at 2 h, 1 mg/mL [2, 5]: 206 ×10⁻⁶ cm/s |
| 0.0322 h⁻¹ | 95.2 ± 3.14% | 1290 min | CC[C@@H](C)[C@H]1NC(=O)[C@@H](Cc2ccc(O)cc2)NC(=O)[C@H](C)NC(=O)CSC[C@@H](C(=O)N2CCC[C@H]2C(=O)N[C@H](CC(C)C)C(=O)NCC(N)=O)NC(=O)[C@H](CC(N)=O)NC(=O)[C@H](CCC(N)=O)NC1=O [Peptide P5] ({CH2CO}-A[dY][dI]QNCP[dL]G-NH2; thioether N-6) | – |
| 5.39 h⁻¹ | – | 7.71 min | CC[C@H](C)[C@@H]1NC(=O)[C@H](Cc2ccc(O)cc2)NC(=O)[C@@H](N)CSCc2cccc(c2)CSC[C@@H](C(=O)N2CCC[C@H]2C(=O)N[C@@H](CC(C)C)C(=O)NCC(N)=O)NC(=O)[C@H](CC(N)=O)NC(=O)[C@H](CCC(N)=O)NC1=O [Peptide P6] | time to 100% degradation ([1]; HCM): less than 1 h |
| 1.05 h⁻¹ | 22.3 ± 0.85% | 39.6 min | CC[C@H](C)[C@@H]1NC(=O)[C@H](Cc2ccc(O)cc2)NC(=O)[C@@H](N)CSSC[C@@H](C(=O)N2CCC[C@H]2C(=O)N[C@H](CC(C)C)C(=O)NCC(N)=O)NC(=O)[C@H](CC(N)=O)NC(=O)[C@H](CCC(N)=O)NC1=O [Peptide P7] | – |
| 2.33 h⁻¹ | 3.7 ± 0.43% | 17.8 min | CC[C@@H](C)[C@H]1NC(=O)[C@@H](Cc2ccc(O)cc2)NC(=O)[C@@H](N)CSSC[C@@H](C(=O)N2CCC[C@H]2C(=O)N[C@@H](CC(C)C)C(=O)NCC(N)=O)NC(=O)[C@H](CC(N)=O)NC(=O)[C@H](CCC(N)=O)NC1=O [Peptide P8] | – |
| – | – | – | CC[C@H](C)[C@H](NC(=O)[C@H](Cc1ccc(O)cc1)NC(=O)[C@H](C)N)C(=O)N[C@@H](CCC(N)=O)C(=O)N[C@@H](CC(N)=O)C(=O)N[C@@H](C)C(=O)N1CCC[C@H]1C(=O)N[C@H](CC(C)C)C(=O)NCC(N)=O [Peptide P9] (H-AYIQNAP[dL]G-NH2) | time to total degradation ([1]; HCM): less than 30 min; time interval in which entirely depleted ([1]; HCM): 0.0 to 0.5 h |
| 2.05 h⁻¹ | – | 20.3 min | CC[C@@H](C)[C@@H](NC(=O)[C@@H](Cc1ccc(O)cc1)NC(=O)[C@H](C)N)C(=O)N[C@@H](CCC(N)=O)C(=O)N[C@@H](CC(N)=O)C(=O)N[C@@H](C)C(=O)N1CCC[C@H]1C(=O)N[C@@H](CC(C)C)C(=O)NCC(N)=O [Peptide P10] (H-A[dY][dI]QNAPLG-NH2) | – |
| 0.289 h⁻¹ | 64.2 ± 1.18% | 144 min | CC[C@@H](C)[C@@H](NC(=O)[C@@H](Cc1ccc(O)cc1)NC(=O)[C@H](C)N)C(=O)N[C@@H](CCC(N)=O)C(=O)N[C@@H](CC(N)=O)C(=O)N[C@@H](C)C(=O)N1CCC[C@H]1C(=O)N[C@H](CC(C)C)C(=O)NCC(N)=O [Peptide P11] (H-A[dY][dI]QNAP[dL]G-NH2) | Papp at 2 h, 1 mg/mL [2, 5]: 35.2 ×10⁻⁶ cm/s |
| – | – | – | P1: Linear form of oxytocin, the two cysteines replaced by alanines (AYIQNAPLG-NH2; ends and bridges not checked; UniProt P01178 20-28, looked up, variant C1A C6A) [Peptide P1] | time interval in which entirely depleted ([1]; HCM): 0.0 to 0.5 h |
